Literature values in patent publication EP1219700A1, “Cleaning compositions” (UNILEVER PLC, priority 2000, dated 2002).

Conditions: at 20°C; other common materials, by contrast

Row | SMILES | Water Solubility (g/100g)
1 | O=BO[O-].[Na+] [Sodium perborate anhydrous] | 3.7
2 | O=P(O)(O)OP(=O)(O)OP(=O)(O)O [Sodium tripolyphosphate anhydrous] | 15
